Source: patent US6512007B1, “Use of galiella lactone” (Bayer Aktiengesellschaft, priority 2000, dated 2003)
pIC50: −log10 of the molar value.

Experiments:
Stat1 = test: IL-6-induced tyrosine-701 phosphorylation of Stat1 in HepG2 cells, immunoprecipitation/Western blot; assay type: cell-based, human; conditions: HepG2, IL-6 50 ng/ml; all concentrations tested, up to 16 μg/ml, equivalent to 165 μM
Excerpt: A crucial step in IL-6-dependent intracellular signal transduction is the phosphorylation of tyrosine-705 in Stat3 and tyrosine-701 in Stat1. […] However, inhibitors which inhibit the Stat3 and Stat1 phosphorylation also have crucial effects on other signal cascades, and therefore pharmaceutically usable inhibitors of IL-6-dependent gene expression should, in the concentration range in which they display their pharmacological effect, affect the Stat3 or Stat1 phosphorylation only slightly or not at all.
Seed out HepG2 cells in Petri dishes (diameter: 10 cm) (OptiMEM medium with 10% fetal calf serum and penicillin/streptomycin (100 iu) cell density: 5×10^5 cell/ml). Incubate in a moist atmosphere with 5% CO2 at 37° C. for 24 h. Replace medium by fresh OptiMEM medium with 0.5% fetal calf serum and penicillin/streptomycin (100 iu) and incubate for a further 48 h. Replace medium by fresh OptiMEM medium with 0.5% fetal calf serum and penicillin/streptomycin (100 iu), add test substances in various concentrations, and incubate for 60 min. 5 μl of the substances dissolved in ethanol, or only ethanol (controls), were added per mixture (10 ml). Induce cells by adding IL-6 (final concentrations 50 ng/ml).
After 20 min. remove medium and wash cell lawn twice wtih 1.5 ml of ice-cold PBS (137 mM NaCl, 2.7 mM KCl, 8.1 mM Na2HPO4×2H2O, 1.5 mM KH2PO4) each time. […]

LNCaP-FGC = test: Growth inhibition test (MTT), cytotoxic properties on tumour cell lines; assay type: cell-based; conditions: Homo sapiens, 144 h, day 6, read-out: cytotoxic effect IC50
Procedure: (§1) The human colon cell lines SW 480 and HT 29 (ATCC Nos. CCL 228 and HBT-38), the mouse melanoma cell line B16F10 and the human prostate tumour cell lines LNCaP-FGC, PC-3 and DU 145 (ATCC No. CRL-10995, CRL-1435, HTB-81) were grown in RPMI 1640 medium with addition of 10% FCS in Roux dishes. This was followed by trypsinization and taking up in RPMI plus 10% FCS to a cell count of 50 000 cell/ml. 100 μl of cell suspension/well were put in a 96-microwell plate and incubated in a CO2 incubator at 37° C. for 1 day. A further 100 μl of RPMI medium and 1 μl of DMSO with galiella lactone were then added. The growth was monitored after day 6. For this purpose, 40 μl of MTT solution (3-(4,5-dimethylthiazol-2-yl)-2,5-diphenyltetrazolium bromide) with an initial concentration of 5 mg/ml of H2O were added to each microwell. Incubation took place in a CO2 incubator at 37° C. for 5 hours. The medium was then separated off, and 100 μl of i-propanol/well were added. After shaking with 100 μl of H2 O for 30 min, the extinction at 540 nm was measured with a Titertek Multiscan MCC/340 (flow).
(§2) The cytotoxic effect is indicated in the table as IC50 (galiella lactone concentration in μM) for the various tumour cell lines: […]

HT 29 = test: as above; assay type: cell-based; conditions: Homo sapiens, HT-29, 144 h; HAT29, MTT, day 6; read-out: cytotoxic effect IC50
Procedure: as §1, §2

DU 145 = test: as above; assay type: cell-based; conditions: Homo sapiens, DU-145, 144 h; DU145, MTT, day 6; read-out: cytotoxic effect IC50
Procedure: as §1, §2

PC-3 = test: as above; assay type: cell-based; conditions: Homo sapiens, 144 h; PC-3, MTT, day 6; read-out: cytotoxic effect IC50
Procedure: as §1, §2

SW 480 = test: as above; assay type: cell-based; conditions: Homo sapiens, 144 h; SW480, MTT, day 6; read-out: cytotoxic effect IC50
Procedure: as §1, §2

B16F10 = test: as above; assay type: cell-based; conditions: Mus musculus, B16-F10, 144 h, day 6, read-out: cytotoxic effect IC50
Procedure: as §1, §2

Which results are given for C[C@H]1C=C2C(=O)O[C@H]3CC[C@@H](C1)[C@@]23O [galiella lactone]?
effect on the phosphorylation of Stat1 (Stat1): no effect; pIC50 (LNCaP-FGC): 5.70; pIC50 (HT 29): 5.30; pIC50 (DU 145): 5.35; pIC50 (PC-3): 5.40; pIC50 (SW 480): 5.30; pIC50 (B16F10): 5.52
